Experimental data reported in ChEMBL document CHEMBL1201862, “PubChem BioAssay data set” (2004).
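How tested: cells in 96-well plates exposed to compound for 48 hours at five concentrations. GI50: concentration for 50% inhibition of growth.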 Calls of active or inactive are those of the source. Cut-off read from the data, not from the text of the source: active = GI50 up to about 1.1 µM and inactive = higher.

Experiments:
Experiment in all cases: NCI tumour cell line growth inhibition, 48 h
[1] = system: HCT-116
[2] = system: BT-549
[3] = system: UACC-62
[4] = system: EKVX
[5] = system: MDA-N
[6] = system: SK-MEL-28
[7] = system: K562
[8] = system: SW-620
[9] = system: SN12C
[10] = system: COLO 205
[11] = system: NCI-H23
[12] = system: CAKI-1
[13] = system: MOLT-4
[14] = system: OVCAR-4
[15] = system: TK-10
[16] = system: ACHN
[17] = system: SK-OV-3
[18] = system: SF-539
[19] = system: LOX IMVI
[20] = system: HOP-92

Measured: GI50

O=c1[nH]cnc2cccc(Cl)c12
inactive: [1] > 100 µM | [2] > 100 µM | [3] > 100 µM | [4] > 100 µM | [5] > 100 µM | [6] > 100 µM | [7] > 100 µM | [8] > 100 µM | [9] > 100 µM | [10] > 100 µM | [11] > 100 µM | [12] > 100 µM | [13] > 100 µM | [14] > 100 µM | [15] > 100 µM | [16] > 100 µM | [17] > 100 µM | [18] > 100 µM

Cc1ccc(NCCCN2CCN(CCCNc3ccc(C)c4sc5ccccc5c(=O)c34)CC2)c2c(=O)c3ccccc3sc12
inactive: [1] > 100 µM | [3] 68.7 µM | [4] 86.3 µM | [5] > 100 µM | [6] 30.5 µM | [7] > 100 µM | [8] > 100 µM | [9] > 100 µM | [10] > 100 µM | [11] > 100 µM | [12] > 100 µM | [13] > 100 µM | [14] > 100 µM | [19] 98.4 µM | [16] > 100 µM | [17] > 100 µM | [18] > 100 µM

CCOC(=O)c1c(NNc2ccccc2)nc2ccccc2c1-c1ccccc1
inactive: [1] 21.8 µM | [3] 16.6 µM | [4] 50.2 µM | [6] 34 µM | [7] 22.5 µM | [8] 50.4 µM | [9] 30.6 µM | [10] 30 µM | [11] 19.5 µM | [12] 37.1 µM | [13] 12.8 µM | [14] 37.5 µM | [15] 80.4 µM | [19] 20.2 µM | [20] 27.9 µM | [16] 39.5 µM | [17] 65.5 µM | [18] 25.6 µM

COC(=O)C(=O)Cc1nc2ccccc2s1
inactive: [1] > 100 µM | [3] > 100 µM | [4] > 100 µM | [6] > 100 µM | [7] > 100 µM | [8] > 100 µM | [9] > 100 µM | [10] > 100 µM | [11] > 100 µM | [12] > 100 µM | [13] > 100 µM | [14] > 100 µM | [15] > 100 µM | [19] > 100 µM | [20] > 100 µM | [16] > 100 µM | [17] > 100 µM | [18] > 100 µM

Cn1c2c(c3ccccc31)CCN1OCC=C[C@@H](C(=O)O)[C@@H]21
inactive: [1] > 100 µM | [3] > 100 µM | [4] > 100 µM | [5] > 100 µM | [6] > 100 µM | [8] > 100 µM | [9] > 100 µM | [10] > 100 µM | [12] > 100 µM | [14] > 100 µM | [15] > 100 µM | [19] > 100 µM | [20] 17.9 µM | [16] > 100 µM | [17] > 100 µM | [18] > 100 µM

CN(/N=C/c1cccs1)c1ccc(Cl)cc1[N+](=O)[O-]
inactive: [1] 26.2 µM | [2] 40.6 µM | [3] 47 µM | [4] 32.7 µM | [5] 3.84 µM | [6] 78.5 µM | [7] 5.78 µM | [8] 12.3 µM | [9] 24.5 µM | [10] > 10 µM | [11] 35.3 µM | [12] 63.1 µM | [13] 17.1 µM | [14] 59.3 µM | [15] 35.2 µM | [16] 40 µM | [17] 40.8 µM | [18] 25 µM

Cc1ccc2c(=O)c(-c3nnsn3)c[nH]c2n1
inactive: [1] > 100 µM | [2] > 100 µM | [3] > 100 µM | [4] > 100 µM | [5] > 100 µM | [6] > 100 µM | [7] > 100 µM | [8] > 100 µM | [9] > 100 µM | [10] > 100 µM | [11] > 100 µM | [12] > 100 µM | [13] > 100 µM | [14] > 100 µM | [15] > 100 µM | [19] > 100 µM | [16] > 100 µM

Cc1n[n+](CC(=O)c2ccccc2)c2sc(N)nn12
inactive: [1] > 100 µM | [2] > 100 µM | [3] > 100 µM | [4] > 100 µM | [5] > 100 µM | [6] > 100 µM | [7] > 100 µM | [8] > 100 µM | [9] > 100 µM | [10] > 100 µM | [11] > 100 µM | [12] > 100 µM | [13] > 100 µM | [14] > 100 µM | [15] > 100 µM | [19] > 100 µM | [16] > 100 µM | [17] > 100 µM

CCSC1=N/C(=C\c2ccccc2O)C(Nc2ccc(C)cc2)=N1
inactive: [1] 39.1 µM | [2] > 100 µM | [3] > 100 µM | [4] > 100 µM | [6] 51.1 µM | [7] 28.2 µM | [8] 50.6 µM | [9] 66.7 µM | [10] > 100 µM | [11] 56 µM | [12] 86.1 µM | [13] 29.2 µM | [15] > 100 µM | [19] > 100 µM | [20] 36.1 µM | [16] 83.6 µM | [17] 42.7 µM | [18] 75 µM

O=c1onc2n1-c1ccc(Cl)cc1C(=S)N1CSCC21 (stereo not drawn)
inactive: [1] 13.7 µM | [2] 20.5 µM | [3] 67.8 µM | [4] 29.6 µM | [5] 8.71 µM | [6] 52.5 µM | [7] 25.4 µM | [8] 20.7 µM | [9] 29.6 µM | [10] 18.4 µM | [12] 64.1 µM | [13] 30.1 µM | [14] 59.2 µM | [15] 70.5 µM | [19] 31.5 µM | [16] 66.8 µM | [17] 19.4 µM

NC1CCCCC1.O=C(CP(=O)(O)O)NC(CC(=O)OCc1ccccc1)C(=O)OCc1ccccc1 (stereo not drawn)
inactive: [1] > 100 µM | [3] > 100 µM | [4] > 100 µM | [5] > 100 µM | [6] > 100 µM | [7] > 100 µM | [8] > 100 µM | [9] > 100 µM | [10] > 100 µM | [11] > 100 µM | [12] > 100 µM | [13] > 100 µM | [14] > 100 µM | [20] > 100 µM | [16] > 100 µM | [17] > 100 µM | [18] > 100 µM

CCCC1C(C#N)(C#N)C(C#N)=C(N)C1(C)C(C)=O (stereo not drawn)
inactive: [1] 73.1 µM | [3] > 100 µM | [4] > 100 µM | [5] 42.7 µM | [7] 37.3 µM | [8] > 100 µM | [9] > 100 µM | [10] 65 µM | [11] > 100 µM | [12] 10.1 µM | [13] > 100 µM | [15] > 100 µM | [19] > 100 µM | [20] 36.3 µM | [16] > 100 µM | [17] > 100 µM | [18] > 100 µM

Oc1ccc2ccccc2c1CCc1c(O)ccc2ccccc12
inactive: [1] 12.6 µM | [3] 9.29 µM | [4] 13.4 µM | [5] 13.5 µM | [6] 10.6 µM | [7] 7.55 µM | [8] 14.2 µM | [9] 11.2 µM | [10] 15.7 µM | [11] 11.8 µM | [12] 7.45 µM | [15] 18.6 µM | [19] 14.3 µM | [20] 11 µM | [16] 16.4 µM | [17] 15.8 µM | [18] 16.2 µM

Nc1ccc(-c2cc(C(=O)Nc3nccs3)nc(S)n2)cc1
inactive: [1] > 100 µM | [3] > 100 µM | [4] > 100 µM | [6] > 100 µM | [7] > 100 µM | [8] > 100 µM | [9] > 100 µM | [10] > 100 µM | [11] > 100 µM | [12] > 100 µM | [13] > 100 µM | [14] > 100 µM | [15] > 100 µM | [19] > 100 µM | [20] > 100 µM | [16] > 100 µM | [17] > 100 µM | [18] > 100 µM

C/C1=C\[C@H](C)C[C@H](C)OC(=O)C[C@H](c2ccc(O)cc2)NC(=O)[C@H](Cc2ccc(O)c(Br)c2)N(C)C(=O)[C@H](C)NC(=O)[C@@H](C)C1
inactive: [1] > 25 µM | [3] > 25 µM | [4] > 25 µM | [5] > 25 µM | [6] > 25 µM | [7] > 25 µM | [8] > 25 µM | [9] > 25 µM | [10] > 25 µM | [11] > 25 µM | [13] > 25 µM | [14] > 25 µM | [15] > 25 µM | [19] > 25 µM | [20] > 25 µM | [16] > 25 µM | [17] > 25 µM

N=c1sc(N2CCOCC2)nn1CC(=O)c1ccccc1
inactive: [1] > 100 µM | [2] > 100 µM | [3] > 100 µM | [4] > 100 µM | [5] > 100 µM | [6] > 100 µM | [7] > 100 µM | [8] > 100 µM | [9] > 100 µM | [10] > 100 µM | [11] > 100 µM | [12] > 100 µM | [13] > 100 µM | [14] > 100 µM | [15] > 100 µM | [16] > 100 µM | [17] > 100 µM
